US12435059B2, “AMP-activated protein kinase inhibitors and methods of making and using the same” (The Regents of the University of Colorado, priority 2019, dated 2025)
Read-outs that look alike come from different tables or passages of the source.

Key:
468 kinases [1] = target: 468 kinases (Homo sapiens, UniProt O14733); assay: biochemical; assay type: binding; conditions: MKK7; read-out: % Inhibition @ 100 nM
468 kinases [2] = target: 468 kinases (Homo sapiens, UniProt O76039); assay: biochemical; assay type: binding; conditions: CDKL5; read-out: % Inhibition @ 100 nM
468 kinases [3] = target: 468 kinases (Homo sapiens, UniProt P00533); assay: biochemical; assay type: binding; conditions: EGFR; read-out: % Inhibition @ 100 nM
468 kinases [4] = target: 468 kinases (Homo sapiens, UniProt P00533, G719S); assay: biochemical; assay type: binding; conditions: EGFR(G719S); read-out: % Inhibition @ 100 nM
468 kinases [5] = target: 468 kinases (Homo sapiens, UniProt P08069); assay: biochemical; assay type: binding; conditions: IGFIR; read-out: % Inhibition @ 100 nM
468 kinases [6] = target: 468 kinases (Homo sapiens, UniProt P09619); assay: biochemical; assay type: binding; conditions: PDGFRB; read-out: % Inhibition @ 100 nM
468 kinases [7] = target: 468 kinases (Homo sapiens, UniProt P11802); assay: biochemical; assay type: binding; conditions: read-out: % Inhibition @ 100 nM
468 kinases [8] = target: 468 kinases (Homo sapiens, UniProt P19525); assay: biochemical; assay type: binding; conditions: PRKR; read-out: % Inhibition @ 100 nM
468 kinases [9] = target: 468 kinases (Homo sapiens, UniProt P32298); assay: biochemical; assay type: binding; conditions: GRK4; read-out: % Inhibition @ 100 nM
468 kinases [10] = target: 468 kinases (Homo sapiens, UniProt P35626); assay: biochemical; assay type: binding; conditions: GRK3; read-out: % Inhibition @ 100 nM
468 kinases [11] = target: 468 kinases (Homo sapiens, UniProt P36888, D835V); assay: biochemical; assay type: binding; conditions: FLT3(D835V); read-out: % Inhibition @ 100 nM
468 kinases [12] = target: 468 kinases (Homo sapiens, UniProt P36888, D835Y); assay: biochemical; assay type: binding; conditions: FLT3(D835Y); read-out: % Inhibition @ 100 nM
468 kinases [13] = target: 468 kinases (Homo sapiens, UniProt P42684); assay: biochemical; assay type: binding; conditions: ABL2; read-out: % Inhibition @ 100 nM
468 kinases [14] = target: 468 kinases (Homo sapiens, UniProt P43403); assay: biochemical; assay type: binding; conditions: ZAP70; read-out: % Inhibition @ 100 nM
468 kinases [15] = target: 468 kinases (Homo sapiens, UniProt P50613); assay: biochemical; assay type: binding; conditions: CDK7; read-out: % Inhibition @ 100 nM
468 kinases [16] = target: 468 kinases (Homo sapiens, UniProt P51813); assay: biochemical; assay type: binding; conditions: BMX; read-out: % Inhibition @ 100 nM
468 kinases [17] = target: 468 kinases (Homo sapiens, UniProt P53778); assay: biochemical; assay type: binding; conditions: p38-gamma; read-out: % Inhibition @ 100 nM
468 kinases [18] = target: 468 kinases (Homo sapiens, UniProt P54760); assay: biochemical; assay type: binding; conditions: EPHB4; read-out: % Inhibition @ 100 nM
468 kinases [19] = target: 468 kinases (Homo sapiens, UniProt Q04912); assay: biochemical; assay type: binding; conditions: MST1R; read-out: % Inhibition @ 100 nM
468 kinases [20] = target: 468 kinases (Homo sapiens, UniProt Q15303); assay: biochemical; assay type: binding; conditions: ERBB4; read-out: % Inhibition @ 100 nM
468 kinases [21] = target: 468 kinases (Homo sapiens, UniProt Q15349); assay: biochemical; assay type: binding; conditions: read-out: % Inhibition @ 100 nM
468 kinases [22] = target: 468 kinases (Homo sapiens, UniProt Q16816); assay: biochemical; assay type: binding; conditions: PHKG1; read-out: % Inhibition @ 100 nM
468 kinases [23] = target: 468 kinases (Homo sapiens, UniProt Q2M2I8); assay: biochemical; assay type: binding; conditions: AAK1; read-out: % Inhibition @ 100 nM
468 kinases [24] = target: 468 kinases (Homo sapiens, UniProt Q6ZN16); assay: biochemical; assay type: binding; conditions: MAP3K15; read-out: % Inhibition @ 100 nM
468 kinases [25] = target: 468 kinases (Homo sapiens, UniProt Q96BR1); assay: biochemical; assay type: binding; conditions: SGK3; read-out: % Inhibition @ 100 nM
468 kinases [26] = target: 468 kinases (Homo sapiens, UniProt Q96SB4); assay: biochemical; assay type: binding; conditions: SRPK1; read-out: % Inhibition @ 100 nM
468 kinases [27] = target: 468 kinases (Homo sapiens, UniProt Q9UQ88); assay: biochemical; assay type: binding; conditions: CDC2L2; read-out: % Inhibition @ 100 nM
468 kinases [28] = target: 468 kinases (Homo sapiens, UniProt Q9Y4K4); assay: biochemical; assay type: binding; conditions: MAP4K5; read-out: % Inhibition @ 100 nM
[29] = target: JAK1-JH2 domain pseudokinase (Homo sapiens (Human), UniProt P23458); assay: Kinome binding analysis at 100 nM, JAK1 JH2 pseudokinase; conditions: read-out: Percentage inhibition at 100 nM, JAKI JH2-pseudokinase
KIT-autoinhibited = KIT-autoinhibited (Homo sapiens (Human), UniProt P10721); assay: Kinome binding analysis at 100 nM, KIT-autoinhibited; conditions: read-out: Percentage inhibition at 100 nM, KIT-autoinbibited

Question: What does the source list for `CCN(CC)CCNC(=O)c1c(C)[nH]c(/C=C2\C(=O)Nc3ccc(CCO)cc32)c1C` [Compound No. 10, (Z)—N-(2-(Diethylamino)ethyl)-5-((5-(2-hydroxyethyl)-2-oxoindolin-3-ylidene)methyl)-2,4-dimethyl-1H-pyrrole-3-carboxamide]?
Answer: inhibition at 0.1 µM (468 kinases [1]): 0%; inhibition at 0.1 µM (468 kinases [2]): 0%; inhibition at 0.1 µM (468 kinases [3]): 0%; inhibition at 0.1 µM (468 kinases [4]): 9%; inhibition at 0.1 µM (468 kinases [5]): 0%; inhibition at 0.1 µM (468 kinases [6]): 99.3%; inhibition at 0.1 µM (468 kinases [7]; CDK4-cyclinD1): 5%; inhibition at 0.1 µM (468 kinases [7]; CDK4-cyclinD3): 0%; inhibition at 0.1 µM (468 kinases [7]; CDK4): 0%; inhibition at 0.1 µM (468 kinases [8]): 2%; inhibition at 0.1 µM (468 kinases [9]): 79%; inhibition at 0.1 µM (468 kinases [10]): 0%; inhibition at 0.1 µM (468 kinases [11]): 100%; inhibition at 0.1 µM (468 kinases [12]): 100%; inhibition at 0.1 µM (468 kinases [13]): 0%; inhibition at 0.1 µM (468 kinases [14]): 6%; inhibition at 0.1 µM (468 kinases [15]): 86%; inhibition at 0.1 µM (468 kinases [16]): 11%; inhibition at 0.1 µM (468 kinases [17]): 14%; inhibition at 0.1 µM (468 kinases [18]): 3%; inhibition at 0.1 µM (468 kinases [19]): 5%; inhibition at 0.1 µM (468 kinases [20]): 15%; inhibition at 0.1 µM (468 kinases [21]; RSK3(Kin.Dom.1-N-terminal)): 13%; inhibition at 0.1 µM (468 kinases [21]; RSK3(Kin.Dom.2-C-terminal)): 0%; inhibition at 0.1 µM (468 kinases [22]): 86%; inhibition at 0.1 µM (468 kinases [23]): 88%; inhibition at 0.1 µM (468 kinases [24]): 0%; inhibition at 0.1 µM (468 kinases [25]): 0%; inhibition at 0.1 µM (468 kinases [26]): 60%; inhibition at 0.1 µM (468 kinases [27]): 1%; inhibition at 0.1 µM (468 kinases [28]): 52%; inhibition at 0.1 µM [29]: 54%; inhibition at 0.1 µM (KIT-autoinhibited): 28%

Question: How did the inhibition at 0.1 µM (468 kinases [1]) turn out when `CCN(CC)CCNC(=O)c1c(C)[nH]c(/C=C2\C(=O)Nc3ccc(CCC(N)=O)cc32)c1C` [Compound No. 16, (Z)-5-((5-(3-Amino-3-oxopropyl)-2-oxoindolin-3-ylidene)methyl)-N-(2-(diethylamino)ethyl)-2,4-dimethyl-1H-pyrrole-3-carboxamide] was run?
Answer: 17%

Question: And the inhibition at 0.1 µM (468 kinases [2])?
Answer: 5%

Question: What about the inhibition at 0.1 µM (468 kinases [3]) of the same molecule?
Answer: 64%

Question: What about the inhibition at 0.1 µM (468 kinases [4]) of the same molecule?
Answer: 21%

Question: What about the inhibition at 0.1 µM (468 kinases [5]) of the same molecule?
Answer: 6%

Question: What about the inhibition at 0.1 µM (468 kinases [6]) of the same molecule?
Answer: 61%

Question: What about the inhibition at 0.1 µM (468 kinases [7]; CDK4-cyclinD1) of the same molecule?
Answer: 29%

Question: And the inhibition at 0.1 µM (468 kinases [7]; CDK4-cyclinD3)?
Answer: 16%

Question: And the inhibition at 0.1 µM (468 kinases [7]; CDK4)?
Answer: 9%

Question: What about the inhibition at 0.1 µM (468 kinases [8]) of the same molecule?
Answer: 29%

Question: What about the inhibition at 0.1 µM (468 kinases [9]) of the same molecule?
Answer: 72%

Question: And the inhibition at 0.1 µM (468 kinases [10])?
Answer: 61%

Question: And the inhibition at 0.1 µM (468 kinases [11])?
Answer: 100%

Question: And the inhibition at 0.1 µM (468 kinases [12])?
Answer: 100%

Question: What about the inhibition at 0.1 µM (468 kinases [13]) of the same molecule?
Answer: 3%

Question: What about the inhibition at 0.1 µM (468 kinases [14]) of the same molecule?
Answer: 60%

Question: What about the inhibition at 0.1 µM (468 kinases [15]) of the same molecule?
Answer: 80%

Question: What about the inhibition at 0.1 µM (468 kinases [16]) of the same molecule?
Answer: 8%

Question: What about the inhibition at 0.1 µM (468 kinases [17]) of the same molecule?
Answer: 15%

Question: What about the inhibition at 0.1 µM (468 kinases [18]) of the same molecule?
Answer: 0%

Question: And the inhibition at 0.1 µM (468 kinases [19])?
Answer: 0%

Question: And the inhibition at 0.1 µM (468 kinases [20])?
Answer: 6%

Question: What about the inhibition at 0.1 µM (468 kinases [21]; RSK3(Kin.Dom.1-N-terminal)) of the same molecule?
Answer: 7%

Question: What about the inhibition at 0.1 µM (468 kinases [21]; RSK3(Kin.Dom.2-C-terminal)) of the same molecule?
Answer: 19%

Question: And the inhibition at 0.1 µM (468 kinases [22])?
Answer: 88%

Question: And the inhibition at 0.1 µM (468 kinases [23])?
Answer: 89%

Question: And the inhibition at 0.1 µM (468 kinases [24])?
Answer: 71%

Question: And the inhibition at 0.1 µM (468 kinases [25])?
Answer: 26%

Question: And the inhibition at 0.1 µM (468 kinases [26])?
Answer: 78%

Question: And the inhibition at 0.1 µM (468 kinases [27])?
Answer: 13%

Question: What about the inhibition at 0.1 µM (468 kinases [28]) of the same molecule?
Answer: 53%

Question: What about the inhibition at 0.1 µM [29] of the same molecule?
Answer: 41%

Question: And the inhibition at 0.1 µM (KIT-autoinhibited)?
Answer: 0%
